What all share (type): cell-based
Assay [1] has as its target T1, human muscarinic M2 receptor (Homo sapiens, UniProt P08172).
T1 sequence (P08172 1-466): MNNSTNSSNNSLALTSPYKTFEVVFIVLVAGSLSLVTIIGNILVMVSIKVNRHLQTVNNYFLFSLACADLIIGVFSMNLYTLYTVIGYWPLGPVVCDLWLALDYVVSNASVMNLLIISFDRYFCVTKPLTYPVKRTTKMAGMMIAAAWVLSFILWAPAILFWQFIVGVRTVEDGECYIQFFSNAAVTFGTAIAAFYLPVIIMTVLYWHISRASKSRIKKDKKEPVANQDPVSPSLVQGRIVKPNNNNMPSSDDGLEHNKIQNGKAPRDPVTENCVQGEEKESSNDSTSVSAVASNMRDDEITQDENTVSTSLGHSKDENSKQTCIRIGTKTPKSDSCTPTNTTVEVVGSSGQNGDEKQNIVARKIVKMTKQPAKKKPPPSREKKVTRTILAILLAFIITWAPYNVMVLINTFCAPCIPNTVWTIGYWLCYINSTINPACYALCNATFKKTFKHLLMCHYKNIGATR
Briefly: Alphascreen Surefire phospho-ERK1/2 functional assay, M2. The settings on record: for EC50: CHO cells stably expressing human M2, read-out: pEC50 M2 (converted); for Emax: CHO, read-out: % Emax cf. ACh (M2), CHO cells stably expressing human M2, relative to ACh. The procedure: (§1) ERK1/2 phosphorylation is a downstream consequence of both Gq/11 and Gi/o protein coupled receptor activation, making it highly suitable for the assessment of M1, M3 (Gq/11 coupled) and M2, M4 receptors (Gi/o coupled), rather than using different assay formats for different receptor subtypes. CHO cells stably expressing the human muscarinic M1, M2, M3 or M4 receptor were plated (25K/well) onto 96-well tissue culture plates in MEM-alpha+10% dialysed FBS. Once adhered, cells were serum-starved overnight. Agonist stimulation was performed by the addition of 5 μL agonist to the cells for 5 min (37° C.). Media was removed and 50 μL of lysis buffer added. After 15 min, a 4 μL sample was transferred to 384-well plate and 7 μL of detection mixture added.
Background: Alpha assays give light when donor and acceptor beads are brought close together.

Assay [2] has as its target T2, human muscarinic M1 receptor (Homo sapiens, UniProt P11229).
T2 sequence (P11229 1-460): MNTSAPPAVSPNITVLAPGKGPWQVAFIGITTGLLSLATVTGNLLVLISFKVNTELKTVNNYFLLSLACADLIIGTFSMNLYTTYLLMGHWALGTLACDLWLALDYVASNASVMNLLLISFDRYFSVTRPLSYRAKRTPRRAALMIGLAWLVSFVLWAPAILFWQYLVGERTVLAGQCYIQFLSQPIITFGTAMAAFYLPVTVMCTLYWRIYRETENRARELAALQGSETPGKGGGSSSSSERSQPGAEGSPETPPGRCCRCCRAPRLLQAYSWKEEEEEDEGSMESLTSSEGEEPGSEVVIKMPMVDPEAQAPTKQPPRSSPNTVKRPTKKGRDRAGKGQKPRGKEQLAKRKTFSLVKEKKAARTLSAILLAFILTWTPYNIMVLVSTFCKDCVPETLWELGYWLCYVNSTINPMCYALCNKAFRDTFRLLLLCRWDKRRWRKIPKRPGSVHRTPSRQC
Briefly: Alphascreen Surefire phospho-ERK1/2 functional assay, M1. As to conditions: phospho-ERK1/2; for EC50 / % Emax cf. ACh (M1): CHO cells stably expressing human M1; for EC50: read-out: pEC50 M1 (converted); for Emax: CHO, read-out: % Emax cf. ACh (M1), CHO cells stably expressing human M1; for Emax / % Emax cf. ACh (M1): relative to ACh. The protocol: as §1

The target of assay [3] is T3, human muscarinic M4 receptor (Homo sapiens, UniProt P08173).
T3 construct: expressed in transfected cells
T3 sequence (P08173 1-479): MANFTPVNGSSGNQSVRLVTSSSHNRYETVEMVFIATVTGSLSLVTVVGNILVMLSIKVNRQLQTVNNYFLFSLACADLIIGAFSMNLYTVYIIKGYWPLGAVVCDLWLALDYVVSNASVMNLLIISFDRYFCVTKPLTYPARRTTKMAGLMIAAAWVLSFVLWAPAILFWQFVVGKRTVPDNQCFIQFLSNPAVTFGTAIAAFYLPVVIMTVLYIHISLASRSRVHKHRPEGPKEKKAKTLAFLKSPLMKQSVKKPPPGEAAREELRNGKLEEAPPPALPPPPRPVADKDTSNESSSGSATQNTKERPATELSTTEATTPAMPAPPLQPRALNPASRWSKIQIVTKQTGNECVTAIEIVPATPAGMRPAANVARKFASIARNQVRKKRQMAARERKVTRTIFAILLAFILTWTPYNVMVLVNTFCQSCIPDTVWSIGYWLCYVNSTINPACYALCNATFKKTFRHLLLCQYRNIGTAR
As to the kind of experiment: Alphascreen Surefire phospho-ERK1/2 functional assay, M4. The settings on record: for Emax: CHO.

Assay [4] has as its target T4, human muscarinic M3 receptor (Homo sapiens, UniProt P20309).
T4 construct: expressed in transfected cells
Briefly: Alphascreen Surefire phospho-ERK1/2 functional assay, M3. As to conditions: for EC50: CHO cells stably expressing human M3, read-out: pEC50 M3 (converted); for Emax: CHO. The protocol: as §1

Setting [5] is: CHO cells stably expressing human M4, phospho-ERK1/2, read-out: pEC50 M4 (converted).
Setting [6] is: read-out: % Emax cf. ACh (M4), CHO cells stably expressing human M4, phospho-ERK1/2, relative to ACh.
Setting [7] is: read-out: % Emax cf. ACh (M3), CHO cells stably expressing human M3, phospho-ERK1/2, relative to ACh.
The mark [8] stands for this setting: CHO cells stably expressing human M4, phospho-ERK1/2, relative to ACh.

Where two headings read alike, the source gives them in different places.

T4 sequence (P20309 whole entry): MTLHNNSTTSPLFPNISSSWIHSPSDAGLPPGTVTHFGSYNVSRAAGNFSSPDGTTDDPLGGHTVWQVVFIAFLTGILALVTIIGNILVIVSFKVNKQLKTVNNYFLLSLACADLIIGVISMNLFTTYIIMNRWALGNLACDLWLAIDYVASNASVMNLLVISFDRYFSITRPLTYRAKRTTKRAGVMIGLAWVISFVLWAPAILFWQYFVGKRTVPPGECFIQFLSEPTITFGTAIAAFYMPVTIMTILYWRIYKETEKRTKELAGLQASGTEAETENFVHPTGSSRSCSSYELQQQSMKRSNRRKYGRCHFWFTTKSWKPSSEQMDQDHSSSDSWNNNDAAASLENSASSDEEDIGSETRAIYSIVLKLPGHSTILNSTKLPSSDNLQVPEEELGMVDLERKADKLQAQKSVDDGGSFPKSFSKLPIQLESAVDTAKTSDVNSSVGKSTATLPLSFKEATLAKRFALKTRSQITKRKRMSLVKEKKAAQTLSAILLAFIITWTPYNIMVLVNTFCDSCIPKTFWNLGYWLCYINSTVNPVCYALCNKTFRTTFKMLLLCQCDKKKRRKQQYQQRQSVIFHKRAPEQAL

The term Emax denotes the size of the effect at its maximum, as opposed to the concentration needed. Turning to `CCOC(=O)N1CCC2(CC(N3CCC(N(CC(F)(F)F)C4COC4)CC3)C2)C1` (single isomer, unassigned) [2-54 Isomer 2], the EC50 was > 20 µM in assay [1], 251 nM in assay [2], 31.6 nM in assay [3] (setting [5]) and > 20 µM in assay [4] (phospho-ERK1/2). For the same compound, the Emax in assay [1] is 28%; in assay [2], 106%; in assay [3] (setting [6]), 98%; in assay [4] (setting [7]), 20%.
As for `CCOC(=O)N1CCC2(CC(N3CCC(N(CC)Cc4cnco4)CC3)C2)C1` (single isomer, unassigned) [2-60 Isomer 2], the EC50 in assay [1] was > 20 µM; in assay [2], > 20000 nM; in assay [3] (setting [5]) it was 63.1 nM; in assay [4] (phospho-ERK1/2) it was > 20 µM. In addition, the Emax in assay [1] came out at 20%; in assay [2] it was 62%; in assay [3] (setting [6]), 111%; in assay [4] (setting [7]) it was 56%.
`CCOC(=O)N1CCC2(CC(N3CCC(N(CC)OC)CC3)C2)C1` (single isomer, unassigned) [2-57 Isomer 2]: the EC50 in assay [1] was > 20 µM; in assay [2], 1000 nM; in assay [3] (setting [5]), 39.8 nM; in assay [4] (phospho-ERK1/2) it was > 20 µM. Besides, the Emax was 11% in assay [1], 40% in assay [2], 107% in assay [3] (setting [6]) and 23% in assay [4] (setting [7]).
On to `CCOC(=O)N1CCC2(CC(N3CCC(SCc4ccccc4)CC3)C2)C1` (single isomer, unassigned) [2-67 Isomer 2], for which the EC50 is > 20 µM in assay [1], > 20000 nM in assay [2], 31.6 nM in assay [3] (setting [5]) and > 20 µM in assay [4] (phospho-ERK1/2). Further, the Emax amounted to 2% in assay [1], 19% in assay [2], 55% in assay [3] (setting [6]) and 2% in assay [4] (setting [7]).
In the case of `CCOC(=O)N1CCC2(CC(N3CCC(N(CC(C)C)C(C)=O)CC3)C2)C1` (single isomer, unassigned) [2-19 Isomer 2], the EC50 in assay [1] was > 20 µM; in assay [2], 100 nM; in assay [3] (setting [5]), 63.1 nM; in assay [4] (phospho-ERK1/2), > 20 µM. Also, the Emax came to 31% in assay [1] and 58% in assay [4] (setting [7]). Further, the “% Emax cf. ACh (M1)” value in assay [2] is 115%. Besides, the “% Emax cf. ACh (M4)” value in assay [3] (setting [8]) is 118%.
Turning to `CCOC(=O)N1CCC2(CC(N3CCC(N(CCF)Cc4cnco4)CC3)C2)C1` (single isomer, unassigned) [2-61 Isomer 2], the EC50 in assay [1] was > 20 µM; in assay [2], > 20000 nM; in assay [3] (pEC50 M4), 39.8 nM; in assay [4] (phospho-ERK1/2) it was > 20 µM. The Emax in assay [1] is 52%; in assay [2] it was 21%; in assay [3] (setting [6]), 101%; in assay [4] (setting [7]), 65%.
Consider `CCOC(=O)N1CCC2(CC(N3CCC(N(C(C)=O)C4CC4)CC3)C2)C1` (single isomer, unassigned) [2-3 Isomer 2], for which the EC50 in assay [1] is > 20 µM; in assay [2] it was 200 nM; in assay [3] (setting [5]), 31.6 nM; in assay [4] (phospho-ERK1/2) it was > 20 µM. In addition, the Emax in assay [1] stood at 13%; in assay [4] (setting [7]), 6%. Moreover, the “% Emax cf. ACh (M1)” value in assay [2] was 93%. In addition, the “% Emax cf. ACh (M4)” value in assay [3] (setting [8]) is reported as 93%.
Turning to `CCOC(=O)N1CC2(CCC(N3CCC(N(C(C)=O)C4CC4)CC3)C2)C1` (racemic) [3-1 Racemic], the EC50 in assay [1] was > 20 µM; in assay [2], > 20000 nM; in assay [3] (setting [5]), 10 nM; in assay [4] (phospho-ERK1/2) it was > 20 µM. The Emax was 2% in assay [1], 19% in assay [2], 46% in assay [3] (setting [6]) and 5% in assay [4] (setting [7]).
On to `CCOC(=O)N1CCC2(CC(N3CCC(N(CC)CC(F)(F)F)CC3)C2)C1` (single isomer, unassigned) [2-7 Isomer 2], for which the EC50 was > 20 µM in assay [1], 79.4 nM in assay [2], 12.6 nM in assay [3] (setting [5]) and > 20 µM in assay [4] (phospho-ERK1/2). Also, the Emax in assay [1] was found to be 16%; in assay [2], 120%; in assay [3] (setting [6]), 118%; in assay [4] (setting [7]) it was 10%.
Consider `CC(=O)OCC[N+](C)(C)C` [ACh, acetylcholine, reference compound], for which the maximal response (Emax) in assay [3] (read-out: % Emax cf. ACh (M4)) was determined as 110%; in assay [4] (read-out: % Emax cf. ACh (M3)), 115%.
As for `CCOC(=O)N1CCC2(CC(N3CCC(N(CC4(O)CCC4)C(C)=O)CC3)C2)C1` (single isomer, unassigned) [2-31 Isomer 2], in assay [2], the EC50 is 398 nM and the “% Emax cf. ACh (M1)” value was found to be 78%. For the same compound, the EC50 in assay [3] (setting [5]) is 39.8 nM. Further, the “% Emax cf. ACh (M4)” value in assay [3] (setting [8]) was 95%.
The corresponding values for `CCOC(=O)N1CCC2(CC(N3CCC(N(CC4CC4)C(C)=O)CC3)C2)C1` (single isomer, unassigned) [2-20 Isomer 1] are > 20000 nM, 17%, 1000 nM and 36%.
Take `CCOC(=O)N1CCC2(CC(N3CCC(N(Cc4ncco4)C(C)=O)CC3)C2)C1` (single isomer, unassigned) [2-37 Isomer 2]: the EC50 is 1260 nM in assay [2] and 631 nM in assay [3] (setting [5]). Also, the Emax in assay [2] is 26%; in assay [3] (setting [6]), 55%.
In the same order, the values of `COC(=O)N1CCC2(CC(N3CCC(N(C(C)=O)C4CCC4)CC3)C2)C1` (single isomer, unassigned) [2-15 Isomer 2] are 501 nM, 200 nM, 117% and 95%.
For `CCOC(=O)N1CCC2(CC(N3CCC(N(CC4(O)CCC4)C(C)=O)CC3)C2)C1` (single isomer, unassigned) [2-31 Isomer 1], in assay [2], the EC50 is 3980 nM and the “% Emax cf. ACh (M1)” value is 27%. Besides, the EC50 in assay [3] (setting [5]) was 200 nM. In addition, in assay [3] (setting [8]), the “% Emax cf. ACh (M4)” value is 62%.
With `CCOC(=O)N1CCC2(CC(N3CCC(N(Cc4cnco4)C(C)=O)CC3)C2)C1` (single isomer, unassigned) [2-36 Isomer 2], the EC50 was 2510 nM in assay [2] and 631 nM in assay [3] (setting [5]). Besides, the Emax in assay [2] was determined as 45%; in assay [3] (setting [6]), 71%.
For the compound `CCOC(=O)N1CCC2(CC(N3CCC(C(C)n4cccn4)CC3)C2)C1` (single isomer, unassigned) [2-65 Isomer 1a], in assay [2], the EC50 was 7940 nM and the Emax was determined as 45%. In assay [3] (setting [5]), the EC50 is > 20000 nM. Besides, the “% Emax cf. ACh (M4)” value in assay [3] (setting [8]) is recorded as 14%.
